Results published in the NIST ThermoML archive (doi:10.1021/je049971a).
Numbers after ± are expanded uncertainties.

Assay: cn = amount concentration of the nth substance listed, in mol/dm3
Conditions: 101 kPa, Liquid; for speed of sound: Pulse-echo method

NC(N)=O [urea] + O showed a speed of sound (283.1 K, c1 = 4.275) of 1578.8 ± 2.5 m/s, a mass density (283.1 K, c1 = 4.275) of 1069 ± 4 kg/m3 and a speed of sound (288.15 K, c1 = 2.065) of 1527.2 ± 2.4 m/s. The speed of sound (288.15 K, c1 = 3.148) was 1557.2 ± 2.5 m/s, the speed of sound (288.15 K, c1 = 4.269) was 1587.6 ± 2.5 m/s and the speed of sound (288.15 K, c1 = 5.421) was 1617 ± 2.5 m/s. For the same molecule, the speed of sound (288.15 K, c1 = 7.839) was 1676.8 ± 2.6 m/s, the speed of sound (288.15 K, c1 = 9.106) was 1706.5 ± 2.7 m/s and the mass density (288.15 K, c1 = 2.065) was 1032 ± 3 kg/m3. It also gave a mass density (288.15 K, c1 = 3.148) of 1049 ± 4 kg/m3, a mass density (288.15 K, c1 = 4.269) of 1067 ± 4 kg/m3 and a mass density (288.15 K, c1 = 5.421) of 1084 ± 4 kg/m3. The mass density (288.15 K, c1 = 7.839) was 1120 ± 5 kg/m3, the mass density (288.15 K, c1 = 9.106) was 1138 ± 6 kg/m3 and the speed of sound (298.15 K, c1 = 2.059) was 1548.9 ± 2.5 m/s. It also gave a speed of sound (298.15 K, c1 = 3.139) of 1574.8 ± 2.5 m/s, a speed of sound (298.15 K, c1 = 4.253) of 1601.1 ± 2.5 m/s and a speed of sound (298.15 K, c1 = 5.405) of 1627.1 ± 2.6 m/s. The speed of sound (298.15 K, c1 = 7.802) was 1680.3 ± 2.6 m/s, the speed of sound (298.15 K, c1 = 9.069) was 1706.3 ± 2.7 m/s and the mass density (298.15 K, c1 = 2.059) was 1030 ± 3 kg/m3. The mass density (298.15 K, c1 = 3.139) was 1047 ± 4 kg/m3, the mass density (298.15 K, c1 = 4.253) was 1063 ± 4 kg/m3 and the mass density (298.15 K, c1 = 5.405) was 1081 ± 4 kg/m3. For the same molecule, the mass density (298.15 K, c1 = 7.802) was 1115 ± 5 kg/m3, the mass density (298.15 K, c1 = 9.069) was 1134 ± 5 kg/m3 and the speed of sound (308.15 K, c1 = 2.051) was 1564.8 ± 2.5 m/s. It also gave a speed of sound (308.15 K, c1 = 3.124) of 1587.1 ± 2.5 m/s, a speed of sound (308.15 K, c1 = 4.232) of 1610.9 ± 2.5 m/s and a speed of sound (308.15 K, c1 = 5.378) of 1633.2 ± 2.6 m/s. For the same molecule, the speed of sound (308.15 K, c1 = 7.765) was 1680.9 ± 2.6 m/s, the speed of sound (308.15 K, c1 = 9.021) was 1704.1 ± 2.7 m/s and the mass density (308.15 K, c1 = 2.051) was 1026 ± 3 kg/m3. The mass density (308.15 K, c1 = 3.124) was 1041 ± 4 kg/m3, the mass density (308.15 K, c1 = 4.232) was 1058 ± 4 kg/m3 and the mass density (308.15 K, c1 = 5.378) was 1076 ± 4 kg/m3. For the same molecule, the mass density (308.15 K, c1 = 7.765) was 1109 ± 5 kg/m3 and the mass density (308.15 K, c1 = 9.021) was 1128 ± 5 kg/m3.
